Data published in patent publication US5773239A, “Mannosidase inhibitors, process for their preparation and their use as therapeutic agents” (Mount Sinai Hospital Corporation., priority 1995, dated 1998).
Where two headings read alike, the source gives them in different places.

What was measured:
[1] = biological target: T1, MDAY-D2 lysosomal α-mannosidases (Mus musculus, UniProt O09159); assay: Inhibition of lysosomal α-mannosidases in MDAY-D2 tumor cell lysate; type: biochemical
T1 construct: 10 μl MDAY-D2 tumor cell lysate; endogenous in cells; host or cells: MDAY-D2 tumor cells (lysate)
T1 sequence (O09159 50-1013): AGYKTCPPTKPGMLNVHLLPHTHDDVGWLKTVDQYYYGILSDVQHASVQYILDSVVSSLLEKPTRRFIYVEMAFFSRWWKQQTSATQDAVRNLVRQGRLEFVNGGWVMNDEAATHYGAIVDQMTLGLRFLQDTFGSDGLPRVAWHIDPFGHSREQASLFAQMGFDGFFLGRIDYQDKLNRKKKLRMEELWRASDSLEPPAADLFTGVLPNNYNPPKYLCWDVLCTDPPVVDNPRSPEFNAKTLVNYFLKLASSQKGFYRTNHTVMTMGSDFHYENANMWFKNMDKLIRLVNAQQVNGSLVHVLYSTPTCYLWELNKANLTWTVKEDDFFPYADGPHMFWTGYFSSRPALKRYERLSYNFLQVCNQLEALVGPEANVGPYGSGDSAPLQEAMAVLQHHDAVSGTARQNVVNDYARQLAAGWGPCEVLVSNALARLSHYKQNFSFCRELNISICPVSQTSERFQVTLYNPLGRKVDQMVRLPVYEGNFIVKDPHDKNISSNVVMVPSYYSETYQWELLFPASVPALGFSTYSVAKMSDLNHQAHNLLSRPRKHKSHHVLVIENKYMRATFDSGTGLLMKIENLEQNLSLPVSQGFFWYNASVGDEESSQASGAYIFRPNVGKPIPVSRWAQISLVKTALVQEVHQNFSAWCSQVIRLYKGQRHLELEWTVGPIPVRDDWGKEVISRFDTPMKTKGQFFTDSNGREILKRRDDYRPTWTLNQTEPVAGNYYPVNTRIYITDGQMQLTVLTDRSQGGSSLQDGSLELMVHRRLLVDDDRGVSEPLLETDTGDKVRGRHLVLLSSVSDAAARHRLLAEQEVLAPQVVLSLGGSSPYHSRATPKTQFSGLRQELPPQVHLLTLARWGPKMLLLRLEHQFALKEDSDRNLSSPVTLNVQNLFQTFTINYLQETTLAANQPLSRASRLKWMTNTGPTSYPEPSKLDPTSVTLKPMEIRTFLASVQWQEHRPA
Procedure: SW and analogues were serially diluted into a volume of 75 μl in 96 well Elisa plates followed by the addition of 37.5 μl of 100 mM sodium acetate pH 5.0 and 37.5 μl of 10 mM p-nitrophenyl α-D-mannospyranoside. Jack Bean α-mannosidase (Sigma, 38 U/ml) was diluted 1/800, 10 μl was added to each well and the plates were incubated for 20 min at 37° C. The reaction was stopped by the addition of 150 μl of 0.5M sodium carbonate and formation of p-nitrophenol was measured with a plate set at 405 nm. The effects of SW and analogues on cellular acid α-mannosidases (ie. lysosomal enzyme) were measured using the same assay where Jack Bean α-mannosidase was replaced by 10 μl MDAY-D2 tumor cell lysate (10 μg/μl of protein) prepared in 0.9% NaCl, 50 mM Tris pH 7.0, 0.5% Triton X-100 and 1.0 mM diethyl p-nitrophenyl phosphate.

bone marrow cells = assay: Bone marrow cell proliferation assay; type: in vivo, C57B1/6J mice; conditions: 10 ug/injection i.p. twice daily, four days; mean +/- S.E. of 4 experiments
Procedure: Pathogen-free C57B1/6J mice, 8-14 weeks old were maintained according to NIH ethical guidelines. Groups of 2-3 mice received intraperitoneal injections of the PBS, SW or designated analog twice daily for 4 days. […] Eighteen hours after the last SW injection, mice were sacrificed and BM cells were harvested. Marrow cell suspensions were prepared under sterile conditions using femurs and tibias of both legs from each donor. Bone marrow (BM) cells were flushed from the marrow cavities with ice-cold RPMI 1640, washed and resuspended at desired concentrations in RPMI-1640 supplemented with 5% FCS, penicillin (100 U/ml) and streptomycin (100 μg/ml). Cell viability was monitored by staining with trypan blue. The ability of the analogues to stimulate BM proliferation was measured by two methods. First, cellularity was determined by directly counting BM cells after they were flushed from the tibias and femurs. Second, enhancement in proliferation was assessed by the increase in the proportion of BM progenitor cells present in the BM preparations as measured by colony formation in soft agar (CFU). BM cells were processed according to the procedures of the GIBCO-BRL Mouse Bone Marrow Stem Cell Proliferation Kit, which employs suspensions of mononuclear cells in a semi-solid methylcellulose medium containing FCS. 2-mercaptoethanol and the growth factors, interleukin-3 (IL-3) (75 U/ml) and erythropoietin (20 U/ml). The plates were incubated for 10-14 days at 37° C. in a humidified atmosphere of 5% CO2 and 95% air, and colonies consisting of at least 40 cells were enumerated using an inverted microscope. The potential colonies that form in the semi-solid medium are the granulocyte, erythrocyte, monocyte, megakaryocyte (ie. CFU-GEMM); the granulocyte, macrophage (ie. CFU-GM), and the burst forming unit-erythroid(ie BFUe).
Mice were given twice daily intraperitoneal injections of PBS, SW or the analogues at 10 ug/injection. After four days of injections, BM cells were flushed from the femurs and tibias and counted. CFUs growing in soft agar consisting of at least 40 cells were enumerated. The results are the mean +/-S.E. of 4 experiments.

MDAY-D2 tumor cells = assay: L-PHA toxicity assay (inhibition of oligosaccharide processing in cells); type: cell-based, mouse; conditions: for IC50 for inhibition of Golgi oligosaccharide processing, higher / activity as inhibitors of Golgi oligosaccharide processing in viable MDAY-D2 tumor cells: compared to SW; for IC50: Mus musculus, read-out: IC50 for Inhibition of L-PHA Toxicity
Procedure: MDAY-D2 tumor cells were inoculated into 96 well micro-test plates at 2×10^4 cells/well, and containing serial dilutions of SW or SW analogues in MEM plus 10% FCS. The cells were cultured for 18-20 hr, followed by the addition of L-PHA at 25 μg/ml for an additional 24 hr. Cell proliferation was measured by adding 0.5 μCi/well of ^3 H-thymidine for 3-4 hr, harvesting onto glass fibre disks using a Titertek harvester and the disks were counted in a liquid scintillation counter. The apparent IC50 values for SW and the analogues are the drug concentrations showing 50% protection from L-PHA toxicity; that is 50% ^3 H-thymidine incorporated compared with cells grown in the absence of L-PHA. In experiments using the esterase inhibitor diethyl p-nitrophenyl phosphate, the compound was added to MDAY-D2 cells 4 hr prior to the α-mannosidase inhibitors and was present through-out the experiment.

[2] = MDAY-D2 tumor cell lysate, pH 5.0, read-out: IC50 for inhibition of MDAY-D2 α-mannosidase
[3] = MDAY-D2 tumor cells, L-PHA 25 μg/ml, 50% protection by 3H-thymidine incorporation

`O=C(OC1CN2CCCC(O)C2C1O)c1ccccc1` (stereo not drawn) [2-benzoyloxy-SW] gave an IC50 [1, 2] of 720 µM, a BM cellularity (bone marrow cells) of 5.77 ± 0.00 cells × 10^7 and a CFU (bone marrow cells) of 421 ± 44 colonies/10^7 cells. For the same compound, the “IC50 for inhibition of Golgi oligosaccharide processing, higher” value (“IC50 for inhibition” below) (MDAY-D2 tumor cells; MDAY-D2 tumor cells) was “at least 10 times” and the IC50 (MDAY-D2 tumor cells; [3]) was 1.8 µM.
For `CCCC(=O)OC1CN2CCCC(O)C2C1O` (stereo not drawn) [2-butanoyloxy-SW], the IC50 [1, 2] was 35 µM, the BM cellularity (bone marrow cells) was 3.80 ± 0.91 cells × 10^7 and the CFU (bone marrow cells) was 545 ± 59 colonies/10^7 cells. For the same compound, the IC50 (MDAY-D2 tumor cells; [3]) was 0.23 µM and the “activity as inhibitors of Golgi oligosaccharide processing in viable MDAY-D2 tumor cells” value (from here on “activity as inhibitors”) (MDAY-D2 tumor cells) was “retained full activity”.
Compound `CCCCCCCC(=O)OC1CN2CCCC(O)C2C1O` (stereo not drawn) [2-octanoyloxy-SW] has an IC50 [1, 2] of 35 µM, a CFU (bone marrow cells) of 482 ± 22 colonies/10^7 cells and an IC50 (MDAY-D2 tumor cells; [3]) of 0.23 µM. For the same compound, the “activity as inhibitors” value (MDAY-D2 tumor cells) was “retained full activity”.
Work on `O=C(OC1CN2CCCC(O)C2C1O)c1ccc([N+](=O)[O-])cc1` (stereo not drawn) [2-p-nitrobenzoyloxy-SW] yielded an IC50 [1, 2] of 35 µM, a BM cellularity (bone marrow cells) of 3.60 ± 0.42 cells × 10^7 and a CFU (bone marrow cells) of 380 ± 7 colonies/10^7 cells. The IC50 (MDAY-D2 tumor cells; [3]) was 0.23 µM and the “activity as inhibitors” value (MDAY-D2 tumor cells) was “retained full activity”.
Compound `Cc1ccc(C(=O)O[C@@H]2CN3CCC[C@@H](O)[C@@H]3[C@@H]2O)cc1` [2-toluoyloxy-SW] has an IC50 [1, 2] of 69 µM, a BM cellularity (bone marrow cells) of 3.40 ± 0.25 cells × 10^7 and a CFU (bone marrow cells) of 384 ± 25 colonies/10^7 cells. For the same compound, the “IC50 for inhibition” value (MDAY-D2 tumor cells; MDAY-D2 tumor cells) was “at least 10 times” and the IC50 (MDAY-D2 tumor cells; [3]) was 3.4 µM.
In the case of `OC1CN2C[C@@H](O)[C@@H](O)[C@H]2[C@H](O)C1O` (stereo partly drawn) [6,7-dihydroxy-SW], the IC50 [1, 2] is reported as 10 µM, the BM cellularity (bone marrow cells) is reported as 5.20 ± 0.03 cells × 10^7 and the CFU (bone marrow cells) is reported as 538 ± 5 colonies/10^7 cells. The IC50 (MDAY-D2 tumor cells; [3]) was over 5 µM.
Compound `CCCCCCCCCCCCCC(=O)OC1CCCN2CC(O)C(O)C12` (stereo not drawn) [8-myristinoyloxy-SW] has an IC50 [1, 2] of over 500 µM, a BM cellularity (bone marrow cells) of 4.80 ± 0.24 cells × 10^7 and a CFU (bone marrow cells) of 226 ± 6 colonies/10^7 cells. The “IC50 for inhibition” value (MDAY-D2 tumor cells; MDAY-D2 tumor cells) was “at least 10 times” and the IC50 (MDAY-D2 tumor cells; [3]) was over 2.5 µM.
`CCCCCCCCCCCCCCCC(=O)OC1CCCN2CC(O)C(O)C12` (stereo not drawn) [8-palmitoyloxy-SW] was tested, and the IC50 [1, 2] was 500 µM, the BM cellularity (bone marrow cells) was 5.10 ± 0.57 cells × 10^7 and the CFU (bone marrow cells) was 553 ± 32 colonies/10^7 cells. For the same compound, the “IC50 for inhibition” value (MDAY-D2 tumor cells; MDAY-D2 tumor cells) was “at least 10 times” and the IC50 (MDAY-D2 tumor cells; [3]) was over 2.5 µM.
In the case of `O[C@H]1[C@H]2[C@H](O)CCCN2C[C@H]1O` [SW, Swainsonine, reference compound], the IC50 [1] is reported as 0.5 µM, the BM cellularity (bone marrow cells) is reported as 4.50 ± 0.42 cells × 10^7 and the CFU (bone marrow cells) is reported as 540 ± 34 colonies/10^7 cells. It also gave an IC50 (MDAY-D2 tumor cells; MDAY-D2, 3 h) of 0.2 µM.
